Laboratory results as given in patent US20210038579A1, “Treatment Of Patients With Classic Fabry Disease” (Amicus Therapeutics, Inc., priority 2018, published 2021).

Key:
[1] = tested on: plasma lyso-Gb3; assay: Phase 3 study, ERT-naïve Fabry patients: plasma lyso-Gb3 by liquid chromatography-mass-spectroscopy; assay type: in vivo, human; details: baseline (or month 6) to month 24
Method: Globotriaosylceramide and Globotriaosylsphingosine. Plasma lyso-Gb3 and 24-hour urine GL-3 were analyzed by liquid chromatography-mass-spectroscopy using a novel stable isotope-labeled internal standard, 13C6-lyso-Gb3 (lower-limit-of-quantification: 0.200 ng/mL, 0.254 nmol/L).
For all outcomes except GL-3 inclusions per kidney interstitial capillary, data are pooled for patients within phenotype subgroups regardless of treatment allocation for the first six months (migalastat or placebo).

[2] = Phase 3 study, ERT-naïve Fabry patients: safety analysis and adverse events
[3] = open-label-extension, 6/57 patients

OC[C@H]1NC[C@H](O)[C@@H](O)[C@H]1O [migalastat]
average (SD) change in plasma lyso-Gb3 ([1]; classic males): −36.04 (34.48) nmol/L | average (SD) change in plasma lyso-Gb3 ([1]; other patients): −16.33 (19.73) nmol/L | patients with nasopharyngitis ([2]; Stage 1, 6/34 patients receiving migalastat): 18% | patients with headache ([2]; Stage 1, 12/34 patients receiving migalastat): 35% | patients experiencing serious adverse events ([2]; Stage 1, migalastat group): 2 patients | patients experiencing serious adverse events ([2]; Stage 2): 5 patients | patients with procedural pain (related to kidney biopsies) ([2]; Stage 2, 7/63 patients): 11% | patients with headache ([2]; Stage 2, 9/63 patients): 14% | end-stage renal disease, cardiac death, stroke ([2]; as defined in Banikazemi et al.): no progression to end-stage renal disease, no cardiac death and no stroke | patients who discontinued migalastat due to serious adverse events ([2]; both deemed unrelated to migalastat): Two | serious adverse events assessed as possibly related to migalastat by the investigator ([2]; fatigue and paresthesia, same patient, months 12-24, resolved): Two | adverse events leading to migalastat discontinuation ([2]; human, in vivo): No adverse events led to migalastat discontinuation | vital sign, physical findings, laboratory, and ECG parameters ([2]; human, in vivo): did not reveal any clinically relevant effect | transient ischemic attack ([2]; judged unrelated to migalastat): single case | severity of adverse events ([2]; most adverse events): mild or moderate in severity | patients experiencing serious adverse events ([2]; open-label-extension): 11 patients | patients with (treatment-emergent) proteinuria ([2]; open-label-extension (months 12-24), 9/57 patients): 16% | patients with bronchitis [2, 3]: 11% | patients with headache [2, 3]: 11% | patients in whom 24-hour urine protein remained stable during migalastat treatment ([2]; patients with baseline proteinuria <300 mg/24-h): 23/28
